Results from US20090233326A1, “METHOD FOR INDUCTION OF THE DIFFERENTIATION OF VISCERAL FAT CELL” (priority 2006, published 2009).

Key:
Format in all cases: cell-based, rat
adiponectin = assay: Adiponectin content of the culture medium (ELISA)
Description: The conventionally used dexamethasone-based differentiation induction system was first evaluated. 2.5 μM dexamethasone and 10 μg/mL insulin or 10 μg/mL insulin was added to the medium to allow for VSC differentiation and maturation for 7 days. […] When dexamethasone was also added to the differentiation induction culture medium, single cell enlargement was promoted (FIG. 1B), although there was no difference in the differentiation efficiency. In addition, the norepinephrine-induced triglyceride degradation reaction was reduced (data not shown).
After 9-day culture with 200 ng/mL IGF-1 and different insulin concentrations, the culture medium was taken and the adiponectin content was measured by ELISA. When VSCs were cultured for 9 days with the constant presence of 200 ng/mL IGF-1 and insulin at a concentration of 10 μg/mL (lane 1), 70 ng/mL (lane 2), 22 ng/mL (lane 3), or 2.5 ng/mL (lane 4), the amount of adiponectin secretion was reduced at insulin concentrations of 70 ng/mL and above (FIG. 9A). When VSCs were cultured for the first 4 days with 200 ng/mL IGF-1 and 2.5 ng/mL insulin followed by 5 days with 200 ng/mL IGF-1 and insulin at a concentration of 10 μg/mL (lane 1), 70 ng/mL (lane 2), 22 ng/mL (lane 3), or 2.5 ng/mL (lane 4), adiponectin secretion was again reduced at insulin concentrations of 70 ng/mL and above (FIG. 9B). […]

aP2 mRNA = aP2 mRNA expression by real-time PCR
Description: (§1) Differentiation conditions 1 to 12 in FIG. 2A correspond to the 1 to 12 in FIGS. 2B, 2C, and 2D (B: photographs after culture for 7 days; C: mRNA was separated after culture for 7 days, and the level of C/EBPα mRNA expression was measured by real-time PCR (the value on day 0 of culture was set at 1); D: the level of aP2 mRNA expression was measured by real-time PCR (the value on day 7 of culture for condition 1 was set at 1)).
(§2) A continuous 7-day culture was carried out in a culture medium containing 200 ng/mL IGF-1 (normal concentration in human blood=150 to 250 ng/mL), and the amount of mRNA expression was then measured for C/EBPα (adipocyte differentiation marker), aP2 (adipocyte differentiation marker), and C/EBPβ (differentiation marker for undifferentiated adipocytes). The results are shown in FIG. 5 (A: photographs after culture for 7 days. 1: cultured with 200 ng/mL IGF-1 for 3 days and then with 22 ng/mL insulin for 4 days. 2: cultured with 200 ng/mL IGF-1 and 22 ng/mL insulin for 7 days. 3: cultured with 200 ng/mL IGF-1 for 7 days. The 1 to 3 corresponds to lanes 1 to 3 in FIGS. 5B to 5D. B: mRNA was separated after the 7-day culture and the amount of C/EBPα mRNA expression was measured by real-time PCR. The value for a culture of 3 days with 10 μg/mL insulin and then 4 days with 22 ng/mL insulin was set at 1. C: mRNA was separated after the 7-day culture and the amount of aP2 mRNA expression was measured by real-time PCR. The value for a culture of 3 days with 10 μg/mL insulin and then 4 days with 22 ng/mL insulin was set at 1. D: mRNA was separated after the 7-day culture and the amount of C/EBPβ mRNA expression was measured by real-time PCR. The value for a culture of 3 days with 10 μg/mL insulin and then 4 days with 22 ng/mL insulin was set at 1.).
The influence of various combinations of IGF-1 and insulin on VAC differentiation induction and maturation was investigated. The results are shown in FIG. 6 (A: photographs after culture for 7 days. 1: cultured with 200 ng/mL IGF-1 for 3 days and then with 2.5 ng/mL insulin for 4 days. 2: cultured with 200 ng/mL IGF-1 and 2.5 ng/mL insulin for 7 days. 3: cultured with 200 ng/mL IGF-1 for 3 days and then with 0.85 ng/mL insulin for 4 days. 4: cultured with 200 ng/mL IGF-1 and 0.85 ng/mL insulin for 7 days. B: mRNA was separated after the 7-day culture and the amount of C/EBPβ mRNA expression was measured by real-time PCR. The value for a culture of 3 days with 10 μg/mL insulin and then 4 days with 22 ng/mL insulin was set at 1. C: mRNA was separated after the 7-day culture and the amount of aP2 mRNA expression was measured by real-time PCR. The value for a culture of 3 days with 10 μg/mL insulin and then 4 days with 22 ng/mL insulin was set at 1.).

[1] = test system: VSC (visceral stromal cells=preadipocytes); assay: Induction of VSC-to-VAC differentiation (lipid droplet formation, photographs after culture)
Description: Mesenteric fat tissue was excised from the abdominal cavity of 3-5 week old male Sprague-Dawley rats (average body weight=100 g) and was washed three times with Hanks' balanced salt solution. The fat was minced with scissors and then incubated for 40 minutes at 37° C. in DMEM/F-12 culture medium containing 0.2% collagenase and 1.0% bovine albumin. The collagenase-digested tissue suspension was subsequently filtered through 600 μm mesh and Hanks' balanced salt solution was added. After centrifugation for 10 minutes at 800×g, the sediment was washed three times with Hanks' balanced salt solution and once with DMEM/F-12 culture medium and was then filtered through 100 μm mesh. The cell suspension thus prepared from the intraabdominal mesenteric fat was seeded to dishes at 0.5×10^5 cells/cm^2, and incubated at 37° C. and 5% CO2 in the culture medium with the indicated composition. The culture medium was changed once a day or once every two days. The culture medium was prepared by the addition of 17 mM pantothenic acid, 33 mM biotin, 100 mM ascorbic acid, 1 mM octanoic acid, 50 nM triiodothyronine, 100 unit/mL penicillin, and 100 mg/mL streptomycin to a basal culture medium of (DMEM)/F12 containing 10% NCS. Insulin and IGF-1 were added in the specified concentrations, and the resulting culture medium was used in the experiments described below.

adiponectin mRNA = assay: Adiponectin mRNA expression by real-time PCR
Description: The level of adiponectin mRNA expression was then examined with the aim of investigating the influence of the insulin concentration on VAC function (FIG. 3). After the VSCs had been differentiated by 10 μg/mL insulin for 3 days, they were then cultured for 4 days in the presence of 10 μg/mL insulin (lane 2), 0.2 μg/mL insulin (lane 3), 70 ng/mL insulin (lane 4), 22 ng/mL insulin (lane 5), or 7.4 ng/mL insulin (lane 6). After the 7-day culture, mRNA was separated and the amount of adiponectin mRNA expression was measured by real-time PCR. The value for the 7-day culture in the absence of insulin was set at 1. The results are shown in FIG. 3 (1: cultured for 7 days without insulin. 2: cultured for 7 days with 10 μg/mL insulin. 3: induction of differentiation for 3 days with 10 μg/mL insulin followed by culture for 4 days with 0.2 μg/mL insulin. 4: induction of differentiation for 3 days with 10 μg/mL insulin followed by culture for 4 days with 70 ng/mL insulin. 5: induction of differentiation for 3 days with 10 μg/mL insulin followed by culture for 4 days with 22 ng/mL insulin. 6: induction of differentiation for 3 days with 10 μg/mL insulin followed by culture for 4 days with 7.4 ng/mL insulin.).

C/EBPα mRNA = C/EBPα mRNA expression by real-time PCR
Description: as §1, §2
Additional investigations were then carried out into the IGF-1 concentration required for differentiation. Proceeding in the same manner as described above, VSCs were cultured for 7 days in the presence of 0.85 ng/mL insulin and IGF-1 at different concentrations. After culturing, mRNA was separated and the amount of C/EBPα mRNA expression was measured by real-time PCR. After culture for 7 days, mRNA was separated and the amount of C/EBPα mRNA expression and the amount of C/EBPβ mRNA expression were measured by real-time PCR. The value for the amount of mRNA expression for culture with 10 μg/mL insulin for 3 days followed by with 22 ng/mL insulin for 4 days was set at 1.

insulin receptor = assay: Insulin receptor expression by immunoblotting with anti-IR antibody
Description: The amount of insulin receptor expression in the maturation process was then examined (FIG. 4). After the VSCs had been cultured for 7, 8, or 9 days, the total cell lysate (20 μg protein) was separated by SDS-PAGE and the IR was detected by immunoblotting with anti-IR antibody. In addition, actin was detected by immunoblotting with anti-actin antibody as the loading control. […] VSCs were cultured for 3 days in the presence of 10 μg/mL insulin or 200 ng/mL IGF-1, after which the total cell lysate (20 μg protein) was separated by SDS-PAGE and the insulin receptor was detected by immunoblotting with anti-insulin receptor (IR) antibody. Actin was detected by immunoblotting with anti-actin antibody as a loading control. […] After culture for 7 days, the total cell lysate (20 μg protein) was separated by SDS-PAGE and the IR was determined by immunoblotting with anti-IR antibody. Actin was detected by immunoblotting with anti-actin antibody as a loading control.

C/EBPβ mRNA = C/EBPβ mRNA expression by real-time PCR
Description: as §2, with “real-time PCR. […] D: mRNA” for “real-time PCR. The value for a culture of 3 days with 10 μg/mL insulin and then 4 days with 22 ng/mL insulin was set at 1. D: mRNA”, “real-time PCR. […]” for “real-time PCR. The value for a culture of 3 days with 10 μg/mL insulin and then 4 days with 22 ng/mL insulin was set at 1.).”
The influence of various combinations of IGF-1 and insulin on VAC differentiation induction and maturation was investigated. […] C: mRNA was separated after the 7-day culture and the amount of aP2 mRNA expression was measured by real-time PCR. […]

[2] = 7-day culture with only IGF-1 (200 ng/mL), vs 10 μg/mL insulin then 22 ng/mL insulin

insulin
adiponectin secretion (adiponectin; 4 days 200 ng/mL IGF-1 and 2.5 ng/mL insulin, then 5 days 200 ng/mL IGF-1 and insulin at 70 ng/mL and above): again reduced
amount of adiponectin secretion (adiponectin; 9 days, constant 200 ng/mL IGF-1 and insulin at 70 ng/mL and above (vs 22 or 2.5 ng/mL)): reduced
aP2 mRNA expression level (aP2 mRNA; 10 μg/mL insulin for 3 days, then at least 22 ng/mL insulin (condition 11), vs constant 10 μg/mL insulin): the same level
aP2 mRNA expression level (aP2 mRNA; 10 μg/mL insulin for 3 days, then insulin at or below 7.4 ng/mL (condition 12), vs constant 10 μg/mL insulin): less aP2 expression
aP2 mRNA expression level (aP2 mRNA; 10 μg/mL insulin for only 2 days (condition 5), vs constant 10 μg/mL insulin): less aP2 expression
aP2 mRNA expression level (aP2 mRNA; constant presence of 0.2 μg/mL insulin, vs constant 10 μg/mL insulin (condition 2)): less aP2 expression
lipid droplet formation ([1]; 0.2 μg/mL insulin, 7 days (condition 3)): entirely absent
lipid droplet accumulation ([1]; 10 μg/mL insulin for 2 days followed by 0.2 μg/mL insulin, total of 7 days (condition 5)): significant decline
lipid droplet formation ([1]; 10 μg/mL insulin for 3 days, then insulin reduced to 22 ng/mL (condition 11)): same level
differentiation into adipocytes (lipid droplets) ([1]; 10 μg/mL insulin, 7 days (condition 2)): differentiation into adipocytes occurred
fat accumulation ([1]; 10 μg/mL insulin, VSC differentiation and maturation for 7 days): normal fat accumulation
lipid droplet accumulation ([1]; 3-day treatment with 10 μg/mL insulin without the ensuing 0.2 μg/mL insulin, vs system containing 0.2 μg/mL insulin): significant decline
level of adiponectin mRNA expression (adiponectin mRNA; 10 μg/mL insulin for 3 days then 4 days 7.4 ng/mL insulin (lane 6)): reduced
level of adiponectin mRNA expression (adiponectin mRNA; 7-day culture with 10 μg/mL insulin (lane 2) vs 3 days 10 μg/mL then 4 days 0.2 μg/mL to 22 ng/mL (lanes 3 to 5)): lower level
C/EBPα mRNA expression level (C/EBPα mRNA; 10 μg/mL insulin for 2 days (conditions 4 and 5), 7 days): did not increase
C/EBPα mRNA expression level (C/EBPα mRNA; 10 μg/mL insulin for only 3 days followed by absence of insulin for 4 days (condition 6)): did rise
C/EBPα mRNA expression level (C/EBPα mRNA; constant presence of 0.2 μg/mL insulin (condition 3), 7 days): did not increase
amount of insulin receptor expression (insulin receptor; 3-day induction with 10 μg/mL insulin vs 200 ng/mL IGF-1 or 200 ng/mL IGF-1 and 22 ng/mL insulin): decline
insulin receptor expression (insulin receptor; 3 days 10 μg/mL insulin, maturation with 22 ng/mL, then culture with insulin at 70 ng/mL or greater vs 22 ng/mL, 7, 8 or 9 days): substantial decline

insulin-like growth factor-1 [IGF-1]
amount of C/EBPβ mRNA (C/EBPβ mRNA; 7-day culture with IGF-1 alone (200 ng/mL; FIG. 5D, lane 3)): maintained
amount of C/EBPβ mRNA expression (C/EBPβ mRNA; IGF-1 concentrations of 50 ng/mL or less vs 200 ng/mL IGF-1, plus 0.85 ng/mL insulin, 7 days): increased amounts of expression
expression of aP2 mRNA (aP2 mRNA; [2]): increased
accumulation of lipid droplets ([1]; 200 ng/mL IGF-1 alone, 7 days): not seen
differentiation efficiency ([1]; IGF-1 concentrations of 50 ng/mL and below, plus 0.85 ng/mL insulin, 7 days): decline
expression of C/EBPα mRNA (C/EBPα mRNA; [2]): increased
amount of C/EBPα mRNA expression (C/EBPα mRNA; as a function of the IGF-1 concentration (10 to 800 ng/mL) plus 0.85 ng/mL insulin, 7 days): no changes
